Tests used:
B16-GMCSF melanoma = B16-GMCSF melanoma model; assay type: in vivo, mouse; conditions: intradermal implants, C57BL/6 mice, 3 mg/kg oral daily, day 19, vs vehicle, n=5
human iPSC-DCs = assay: Activation of human iPSC-derived DCs by flow cytometry; assay type: cell-based; conditions: vitamin E 50 μg/ml or TPI-1 1 μg/ml, 72 h, gated on CD11c+
Excerpt: FIG. 10A: Representative high magnification photomicrographs (100×, 200×, 400×) illustrating the morphology of colonies and individual cells of fully differentiated iPSC-derived DCs (iPSC-DCs) displaying characteristic DC morphology consisting of protrusions and veils of cytoplasm at the end of the differentiation procedure (day 23) after using the differentiation protocol for the addition and withdrawal of growth factors and cytokines. FIG. 10B: Phenotypic characterization of generated human iPSC-DCs. Representative flow cytometry analysis depicting the expression of DC lineage markers by iPSC-DCs gated on the CD11c+ population. Levels of expression of individual markers are shown as red histograms, while non-specific staining by isotype controls is shown as light blue histograms. FIG. 10C: Phenotypic characterization of human iPSC-DCs after treatment with vitamin E or TPI-1 to inhibit SHP1. Representative flow cytometry analysis (left panel) and quantification (right panel) depicting the expression of indicated activity markers by iPSC-DCs gated on the CD11c+population with the treatment of vehicle, vitamin E (50 μg/ml) or TPI-1 (1 μg/ml) for 72 h.
We explored the feasibility of differentiating populations of primary DCs from iPSCs and characterized the phenotype of iPSC-DC with the pharmacological inhibition of SHP1 by vitamin E or TPI-1. […]

For O=C1C=CC(=O)C(c2cc(Cl)ccc2Cl)=C1 [TPI-1, 2-(2,5-dichlorophenyl)-2,5-cyclohexadiene-1,4-dione], the mean tumor volume (B16-GMCSF melanoma) was “significantly smaller tumor volume” and the “expression of DC activation markers on iPSC-DCs” value (human iPSC-DCs) was “increased expression of DC activation markers CD40 and CD86”.

— patent US20240424019A1, “SHP1 MODIFIED DENDRITIC CELLS AND EXTRACELLULAR VESICLES DERIVED THEREFROM AND ASSOCIATED METHODS” (BOARD OF REGENTS, THE UNIVERSITY OF TEXAS SYSTEM, priority 2021, published 2024)
